Results as given in patent US20180049984A1 (priority 2014, published 2018).

Tested on: Bp
Set-up: species or system BALB/c mice
Conditions: mouse, in vivo

## gentamicin [free (i.e., unencapsulated) gentamicin]
  bacterial burdens in lungs, livers, and spleens: 10^3-10^5 CFUs/organ
  time to death of all mice after infection: ≤ 4 days
